Each structure is given as a SMILES string.

In one assay the test system is mice. Conditions: adult and aged mice; cited from earlier work.
The subject of assay [1] is primary cortical neurons injured by glutamate. In words: glutamate toxicity on primary cortical neurons (neuron survival, neurite network). Conditions: glutamate 40 μM, 20 min. The class given is cell-based, rat. The procedure: Rat cortical neurons were cultured as described by Singer et al., 1999 [J. Neuroscience 19(7), 2455-2463] and Callizot et al. 2013 [J. Neurosc. Res. 91(5), 706-716].
Briefly, pregnant females (Wistar; JanvierLabs, St Berthevin, France) at 15 days of gestation were killed by cervical dislocation. Foetuses were collected and immediately placed in ice-cold L15 Leibovitz medium (Pan Biotech, Aidenbach, Germany, Batch: 4120413) with a 2% penicillin (10,000 U/ml) and streptomycin (10 mg/ml) solution (PS; Pan Biotech, Aidenbach, Germany) and 1% bovine serum albumin (BSA; Pan Biotech, Aidenbach, Germany). Cortex was treated for 20 min at 37° C. with a trypsin-EDTA (Pan Biotech, Aidenbach, Germany) solution at a final concentration of 0.05% trypsin and 0.02% EDTA. The dissociation was stopped by addition of Dulbecco's modified Eagle's medium (DMEM) with 4.5 g/liter of glucose (Pan Biotech, Aidenbach, Germany), containing DNAse I grade II (final concentration 0.5 mg/ml; Pan Biotech, Germany) and 10% fetal calf serum (FCS; Invitrogen, Cergy Pointoise, France). Cells were mechanically dissociated by three forced passages through the tip of a 10-ml pipette. Cells were then centrifuged at 515 g for 10 min at 4° C. The supernatant was discarded, and the pellet was resuspended in a defined culture medium consisting of Neurobasal medium (Invitrogen, Cergy Pointoise, France) with a 2% solution of B27 supplement (Invitrogen, Cergy Pointoise, France), 2 mmol/liter of L-glutamine (Pan Biotech, Aidenbach, Germany), 2% of PS solution, and 10 ng/ml of brain-derived neurotrophic factor (BDNF; Pan Biotech, Aidenbach, Germany). Viable cells were counted in a Neubauer cytometer, using the trypan blue exclusion test. The cells were seeded at a density of 30,000 per well in 96-well plates precoated with poly-L-lysine (Corning Biocoat, Tewksbury, USA) and were cultured at 37° C. in an air (95%)-CO2 (5%) incubator. The medium was changed every 2 days.
On day 13, the cultures were exposed for 20 minutes to glutamate 40 μM in the absence or presence of Huperzia serrata extracts. Then the cells were washed out and new fresh medium containing or not Huperzia serrata extracts was added for another 48 hours.
The cells were then fixed by a cold solution ethanol/acetic acid (95:5 v/v) for 5 minutes at −20° C. After permeabilization with 0.1% of saponin (Sigma), cells were incubated for 2 hours with mouse monoclonal antibody against microtubule-associated-protein 2 (MAP 2; Sigma) at dilution of 1/400 in PBS containing 1% foetal calf serum (Invitrogen) and 0.1% of saponin.
Neuron survival assessment: For each condition 6 wells were assessed, 20 pictures per well were taken using InCell Analyzer™ 1000 (GE Healthcare) with 20× magnification to assess cell bodies (MAP 2 staining). Analysis of picture was done using Developer software (GE Healthcare), the number of neurons per picture was recorded. A mean of neuron number of the 20 pictures was automatically calculated per well, then one data was provided per well (total of 6 raw data were provided per condition).
Neurite network length assessment: For each condition 6 wells were assessed, 20 pictures per well were taken using InCell Analyzer™ 1000 with 20× magnification (20 pictures at X20 representing ˜80% of the total well surface), to assess MAP-2 staining. Analysis of picture was done using Developer software, the total neurite length per picture was recorded. A mean neurite length of the 20 pictures was automatically calculated per well, then one data was provided per well (total of 6 raw data were provided per condition).
The protocol used in these assays is the same as described in example 1. After 13 days of neuron culture, the candidate compounds were solved in DMSO and diluted in culture medium. […]

The subject of the next assay is ALS patients. Conditions: several months; cited from earlier work.

For the compound `CC1=C[C@H]2Cc3[nH]c(=O)ccc3[C@]3(C1)NCCC[C@H]23` [HupB, Huperzine B], in the assay on mice, the “memory retention and memory retrieval” value was “improved memory retention and memory retrieval”.

In turn, `O=C(O)c1cc(O)c(O)c(O)c1` [GA, gallic acid] had a neuron survival in assay [1] (10 and 50 μM) of around 80%. Also, the neurite network result in assay [1] (GA 10 pM to 50 μM) was “no protection”.

Consider `Nc1nc2ccc(OC(F)(F)F)cc2s1` [Riluzole], for which, in the assay with ALS patients, the prolongation of survival is around 7%.

Regarding `O=C(O)/C=C/c1ccc(O)cc1` [pCouA, para-coumaric acid], the neuron survival in assay [1] (100 nM and 1 μM) was around 80%. Besides, the neurite network result in assay [1] (only 1 μM) was “protective effect”. For the same compound, the “survival and neurite network” value in assay [1] (p-CouA at the lowest concentrations) was “inactive”.

With `COc1cc(/C=C/C(=O)O)cc(OC)c1O` [SA, sinapic acid], the neuron survival in assay [1] (100, 10 and 1 nM) is around 80%; in assay [1] (SA at the lowest concentrations), “inactive”. The neurite network entry in assay [1] (SA 10 pM to 50 μM) is recorded as “no protective effect”.

The record behind these values is patent publication US10596166B2, “Combination composition comprising huperzine” (priority 2015, dated 2020).
